Laboratory results taken from ChEMBL document CHEMBL4342527, “Discovery of Novel Fungal Lanosterol 14α-Demethylase (CYP51)/Histone Deacetylase Dual Inhibitors to Treat Azole-Resistant Candidiasis” (J Med Chem, 2020).
Converted amounts (≈) assume the structure as drawn.

Experiments:
Candida albicans [1] = test: Antifungal activity against azole-sensitive Candida albicans SC5314 after 48 hrs by spectrophotometry-based serial microdilution method; format: functional
Candida albicans [2] = test: Antifungal activity against azole-resistant Candida albicans 0304103 after 48 hrs by spectrophotometry-based serial microdilution method; format: functional; conditions: Candida albicans, 0304103, 48 h
Candida albicans [3] = test: Antifungal activity against azole-resistant Candida albicans 4108 after 48 hrs by spectrophotometry-based serial microdilution method; format: functional; conditions: Candida albicans, 4108, 48 h
Cryptococcus neoformans = test: Antifungal activity against azole-sensitive Cryptococcus neoformans H99 after 72 hrs by spectrophotometry-based serial microdilution method; format: functional, var grubii H99
Candida albicans [4] = test: Antifungal activity against azole-resistant Candida albicans 7781 after 48 hrs by spectrophotometry-based serial microdilution method; format: functional; conditions: Candida albicans, 7781, 48 h
Candida tropicalis = test: Antifungal activity against azole-resistant Candida tropicalis 5008 after 48 hrs by spectrophotometry-based serial microdilution method; format: functional; conditions: Candida tropicalis, 5008, 48 h
[5] = Candida albicans, SC5314, 48 h, read-out: MIC80
[6] = Cryptococcus neoformans, var grubii H99 , 72 h, read-out: MIC80

Compound | MIC80 (Candida albicans [1]; [5]) | MIC80 (Candida albicans [2]) | MIC80 (Candida albicans [3]) | MIC80 (Cryptococcus neoformans; [6]) | MIC80 (Candida albicans [4]) | MIC80 (Candida tropicalis) | MIC80 (Candida albicans [1]) | MIC80 (Cryptococcus neoformans)
O=C(NO)c1ccc(OCCCCc2ncnn2CC(O)(Cn2cncn2)c2ccc(F)cc2F)cc1 (racemic) | 32 µg/mL (≈ 62.3 µM) | 32 µg/mL (≈ 62.3 µM) | > 64 µg/mL | 64 µg/mL (≈ 125 µM) | > 64 µg/mL | > 64 µg/mL | – | –
O=C(Cc1ccc(OCCCOc2ccc(CN(CC(O)(Cn3cncn3)c3ccc(F)cc3F)C3CC3)cc2)cc1)NO (racemic) | 8 µg/mL (≈ 13.2 µM) | 8 µg/mL (≈ 13.2 µM) | 32 µg/mL (≈ 52.7 µM) | 4 µg/mL (≈ 6.58 µM) | 4 µg/mL (≈ 6.58 µM) | 16 µg/mL (≈ 26.3 µM) | – | –
CCN(Cc1ccc(OCCCOc2ccc(CC(=O)NO)cc2)cc1)CC(O)(Cn1cncn1)c1ccc(F)cc1F (racemic) | 0.25 µg/mL (≈ 0.42 µM) | 1 µg/mL (≈ 1.68 µM) | 4 µg/mL (≈ 6.72 µM) | 1 µg/mL (≈ 1.68 µM) | 1 µg/mL (≈ 1.68 µM) | 4 µg/mL (≈ 6.72 µM) | – | –
CN(Cc1ccc(-n2cnn(CCCCC(=O)NO)c2=O)cc1)CC(O)(Cn1cncn1)c1ccc(F)cc1F (racemic) | 32 µg/mL (≈ 57.5 µM) | 64 µg/mL (≈ 115 µM) | > 64 µg/mL | 64 µg/mL (≈ 115 µM) | > 64 µg/mL | > 64 µg/mL | – | –
CN(Cc1ccc(OCCCCCCCC(=O)NO)cc1)CC(O)(Cn1cncn1)c1ccc(F)cc1F (racemic) | 0.25 µg/mL (≈ 0.47 µM) | 0.5 µg/mL (≈ 0.941 µM) | 0.5 µg/mL (≈ 0.941 µM) | 0.5 µg/mL (≈ 0.941 µM) | 0.5 µg/mL (≈ 0.941 µM) | 1 µg/mL (≈ 1.88 µM) | – | –
CN(Cc1ccc(OCCCCC(=O)NO)cc1)CC(O)(Cn1cncn1)c1ccc(F)cc1F (racemic) | 2 µg/mL (≈ 4.09 µM) | 2 µg/mL (≈ 4.09 µM) | 8 µg/mL (≈ 16.3 µM) | 2 µg/mL (≈ 4.09 µM) | 2 µg/mL (≈ 4.09 µM) | 8 µg/mL (≈ 16.3 µM) | – | –
CN(Cc1ccccc1OCCCOc1ccc(CCC(=O)NO)cc1)CC(O)(Cn1cncn1)c1ccc(F)cc1F (racemic) | 1 µg/mL (≈ 1.68 µM) | 1 µg/mL (≈ 1.68 µM) | 2 µg/mL (≈ 3.36 µM) | 2 µg/mL (≈ 3.36 µM) | 1 µg/mL (≈ 1.68 µM) | 64 µg/mL (≈ 107 µM) | – | –
C[C@@H](c1ncncc1F)[C@](O)(Cn1cncn1)c1ccc(F)cc1F [VORICONAZOLE] | 0.125 µg/mL (≈ 0.358 µM) | > 64 µg/mL | > 64 µg/mL | 0.0625 µg/mL (≈ 0.179 µM) | > 64 µg/mL | > 64 µg/mL | – | –
CN(Cc1ccc(-n2cnn(CCCCCCCCC(=O)NO)c2=O)cc1)CC(O)(Cn1cncn1)c1ccc(F)cc1F (racemic) | 2 µg/mL (≈ 3.26 µM) | 4 µg/mL (≈ 6.53 µM) | 32 µg/mL (≈ 52.2 µM) | 4 µg/mL (≈ 6.53 µM) | 4 µg/mL (≈ 6.53 µM) | 8 µg/mL (≈ 13.1 µM) | – | –
CN(Cc1ccccc1OCCCOc1ccc(CC(=O)NO)cc1)CC(O)(Cn1cncn1)c1ccc(F)cc1F (racemic) | 1 µg/mL (≈ 1.72 µM) | 2 µg/mL (≈ 3.44 µM) | 2 µg/mL (≈ 3.44 µM) | 0.5 µg/mL (≈ 0.86 µM) | 2 µg/mL (≈ 3.44 µM) | 2 µg/mL (≈ 3.44 µM) | – | –
CN(Cc1cccc(OCCCOc2ccc(C(=O)NO)cc2)c1)CC(O)(Cn1cncn1)c1ccc(F)cc1F (racemic) | 1 µg/mL (≈ 1.76 µM) | 2 µg/mL (≈ 3.52 µM) | 2 µg/mL (≈ 3.52 µM) | 0.125 µg/mL (≈ 0.22 µM) | 4 µg/mL (≈ 7.05 µM) | 4 µg/mL (≈ 7.05 µM) | – | –
CN(Cc1ccccc1OCCCOc1ccc(C(=O)NO)cc1)CC(O)(Cn1cncn1)c1ccc(F)cc1F (racemic) | 4 µg/mL (≈ 7.05 µM) | 4 µg/mL (≈ 7.05 µM) | 1 µg/mL (≈ 1.76 µM) | 0.5 µg/mL (≈ 0.881 µM) | 4 µg/mL (≈ 7.05 µM) | 8 µg/mL (≈ 14.1 µM) | – | –
O=C(CCCCCCC(=O)Nc1ccccc1)NO [VORINOSTAT] | – | – | – | – | – | – | >64 µg/mL | >64 µg/mL
O=C(Cc1ccc(OCCCc2ncn(CC(O)(Cn3cncn3)c3ccc(F)cc3F)n2)cc1)NO (racemic) | 32 µg/mL (≈ 62.3 µM) | 32 µg/mL (≈ 62.3 µM) | > 64 µg/mL | 32 µg/mL (≈ 62.3 µM) | 8 µg/mL (≈ 15.6 µM) | 64 µg/mL (≈ 125 µM) | – | –
CN(Cc1ccc(CCCC(=O)Nc2ccc(C(=O)NO)cc2)cc1)CC(O)(Cn1cncn1)c1ccc(F)cc1F (racemic) | 4 µg/mL (≈ 6.91 µM) | 16 µg/mL (≈ 27.7 µM) | 32 µg/mL (≈ 55.3 µM) | 8 µg/mL (≈ 13.8 µM) | 8 µg/mL (≈ 13.8 µM) | 8 µg/mL (≈ 13.8 µM) | – | –
CN(Cc1ccc(-n2cnn(CCOc3ccc(CC(=O)NO)cc3)c2=O)cc1)CC(O)(Cn1cncn1)c1ccc(F)cc1F (racemic) | 2 µg/mL (≈ 3.15 µM) | 4 µg/mL (≈ 6.3 µM) | 32 µg/mL (≈ 50.4 µM) | 4 µg/mL (≈ 6.3 µM) | 4 µg/mL (≈ 6.3 µM) | 8 µg/mL (≈ 12.6 µM) | – | –
CN(Cc1ccc(CCCOc2ccc(CC(=O)NO)cc2)cc1)CC(O)(Cn1cncn1)c1ccc(F)cc1F (racemic) | 0.125 µg/mL (≈ 0.221 µM) | 0.5 µg/mL (≈ 0.884 µM) | 0.5 µg/mL (≈ 0.884 µM) | 0.5 µg/mL (≈ 0.884 µM) | 0.25 µg/mL (≈ 0.442 µM) | 2 µg/mL (≈ 3.54 µM) | – | –
CN(Cc1ccc(OCCCCCC(=O)NO)cc1)CC(O)(Cn1cncn1)c1ccc(F)cc1F (racemic) | 1 µg/mL (≈ 1.99 µM) | 2 µg/mL (≈ 3.97 µM) | 4 µg/mL (≈ 7.94 µM) | 1 µg/mL (≈ 1.99 µM) | 1 µg/mL (≈ 1.99 µM) | 8 µg/mL (≈ 15.9 µM) | – | –
CN(Cc1ccc(-n2cnn(CCCC(=O)NO)c2=O)cc1)CC(O)(Cn1cncn1)c1ccc(F)cc1F (racemic) | 8 µg/mL (≈ 14.7 µM) | 64 µg/mL (≈ 118 µM) | 8 µg/mL (≈ 14.7 µM) | 2 µg/mL (≈ 3.69 µM) | 32 µg/mL (≈ 59 µM) | 8 µg/mL (≈ 14.7 µM) | – | –
